Measured values reported in patent publication US8987195B2 (priority 2012, dated 2015).
Where two headings read alike, the source gives them in different places.

Legend:
HCV genotype 1b replicon = assay: HCV replicon assay, genotype 1b replicon EC50; assay type: cell-based, Hepatitis C virus; settings: Hepatitis C virus, HCV replicon, genotype 1b, read-out: EC50 [gt-1b]
Outline: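 Readout was replicon RNA copy number, by 32P-probe protection or TaqMan normalized to cellular cyclophilin A RNA, or luciferase activity for luciferase:Neo^r fusion lines. Cells were exposed to serially diluted compound for 24-48 hours without G418, then washed and lysed. EC50 derived from four-parameter fit relative to DMSO.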

[1] = target: HCV NS3/4A protease genotype 1b (Hepatitis C virus genotype 1b, UniProt P26663); assay: HCV NS3/4A protease time-resolved fluorescence (TRF) assay, Ki against genotype 1b; assay type: biochemical; settings: IC50 [gt-1b], NS3/4A protease TRF assay, genotype 1b enzyme 0.2 nM
Outline: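 First, protease (genotype 1b 0.2 nM, A156T 0.4 nM, genotype 3a 0.025 nM) is preincubated 30 min with inhibitor. Next, 25 nM TRF substrate starts the reaction, run 2.5 h at room temperature. Finally, europium fluorescence is read and Ki calculated from IC50.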

[2] = target: HCV NS3/4A protease A156T mutant (Hepatitis C virus genotype 1b, UniProt P26663, A1182T); assay: HCV NS3/4A protease time-resolved fluorescence (TRF) assay, Ki against A156T mutant; assay type: biochemical; settings: NS3/4A protease TRF assay, A156T mutant enzyme 0.4 nM, read-out: IC50 [gt-1b A156T]
Experimental: (§1) Measuring NS3/4A Inhibitory Activity (Ki) Against Genotype 1b, Against A156T Mutants and Against Genotype 3a
(§2) One assay for measuring inhibitory activity is HCV NS3 protease time-resolved fluorescence (TRF) assay as described below and in Mao et al., Anal. Biochem. 373:1-8, 2008 and International Patent Application Publication WO 2006/102087. A NS3 protease assay can be performed, for example, in a final volume of 20 μl assay buffer containing 50 mM HEPES, pH 7.5, 150 mM NaCl, 15% glycerol, 0.15% TRITON X-100, 10 mM DTT, and 0.1% PEG 8000. NS3 and NS4A protease is pre-incubated with various concentrations of inhibitors in DMSO for 30 min. The reaction is initiated by adding the TRF peptide substrate (final concentration 25 nM). NS3 mediated hydrolysis of the substrate was run for 2.5 hours at room temperature. Product fluorescence is detected using A Pherastar Plus plate reader (BMG) or Envision (Perkin Elmer Life and Analytical Sciences with excitation at 340 nm and emission at 615 nm using the appropriate delay time optimized for the europium fluorescence probe. Testing concentrations of different enzyme forms are selected to result in a signal to background ratio (S/B) of 10-30. IC50 values are derived using a standard four-parameter fit to the data. Ki values are derived from IC50 values using the following formula, IC50=Ki(1+[S]/KM), Eqn (1), where [S] is the concentration of substrate peptide in the reaction and KM is the Michaelis constant. See P. Gallinari et al., 38 BIOCHEM. 5620-32 (1999); P. Gallinari et al., 72 J. VIROL. 6758-69 (1998); M. Taliani et al., 240 ANAL. BIOCHEM. 60-67 (1996); Mao et al., Analytical Biochemistry 373: 1-8, 2008.
(§3) The assay described above was run against genotype 1b at a concentration of 0.2 nM, against A156T mutant strains at a concentration of 0.4 nM, and against genotype 3a at a concentration of 0.025 nM.

[3] = target: HCV NS3/4A protease genotype 3a (Hepatitis C virus genotype 3a, UniProt Q81495); assay: HCV NS3/4A protease time-resolved fluorescence (TRF) assay, Ki against genotype 3a; assay type: biochemical
Experimental: as §1, §2, §3

| Structure (SMILES) | EC50 (HCV genotype 1b replicon) [nM] | IC50 [1] [nM] | IC50 [2] [nM] | IC50 [3] [nM] | EC50 (HCV genotype 1b replicon; K+ salt) [nM] | IC50 ([1]; K+ salt) [nM] | IC50 ([2]; K+ salt) [nM] |
| --- | --- | --- | --- | --- | --- | --- | --- |
| CC(C)(C)COC(=O)N[C@H]1CCCCC/C=C\[C@@H]2C[C@@]2(C(=O)NS(=O)(=O)C2(C)CC2)NC(=O)[C@@H]2C[C@]3(CCc4c(c(C(F)F)nc5ccc(Cl)cc45)O3)CN2C1=O [Example 369, 2,2-dimethylpropyl [(2R,6S,12Z,13aS,14aR,16aS)-9′-chloro-5′-(difluoromethyl)-14a-{[(1-methylcyclopropyl)sulfonyl]carbamoyl}-5,16-dioxo-1,1′,2′,5,6,7,8,9,10,11,13a,14,14a,15,16,16a-hexadecahydrospiro[cyclopropa[e]pyrrolo[1,2-a][1,4]diazacyclopentadecine-2,3′-pyrano[2,3-c]quinolin]-6-yl]carbamate] | 15.1 | 0.018 | 1.16 | 1.18 |  |  |  |
| COc1ccc2nc(C)c3c(c2c1)[C@H](F)C[C@]1(C[C@H]2C(=O)N[C@]4(C(=O)NS(=O)(=O)C5(C)CC5)C[C@H]4/C=C\CCCCC[C@H](NC(=O)OCC(C)(C)F)C(=O)N2C1)O3 [Example 370, 2-fluoro-2-methylpropyl [(1′R,2S,6S,12Z,13aS,14aR,16aS)-1′-fluoro-9′-methoxy-5′-methyl-14a-{[(1-methylcyclopropyl)sulfonyl]carbamoyl}-5,16-dioxo-1,1′,2′,5,6,7,8,9,10,11,13a,14,14a,15,16,16a-hexadecahydrospiro[cyclopropa[e]pyrrolo[1,2-a][1,4]diazacyclopentadecine-2,3′-pyrano[2,3-c]quinolin]-6-yl]carbamate] |  |  |  | 0.149 | 8.56 | 0.009 | 0.037 |
| COc1ccc2nc(C(F)(F)F)c3c(c2c1)CC[C@]1(C[C@H]2C(=O)N[C@]4(C(=O)NS(=O)(=O)C5(C)CC5)C[C@H]4/C=C\CCCCC[C@H](NC(=O)OCC(C)(C)C)C(=O)N2C1)O3 [Example 382, 2,2-dimethylpropyl [(2R,6S,12Z,13aS,14aR,16aS)-9′-methoxy-14a-{[(1-methylcyclopropyl)sulfonyl]carbamoyl}-5,16-dioxo-5′-(trifluoromethyl)-1,1′,2′,5,6,7,8,9,10,11,13a,14,14a,15,16,16a-hexadecahydrospiro[cyclopropa[e]pyrrolo[1,2-a][1,4]diazacyclopentadecine-2,3′-pyrano[2,3-c]quinolin]-6-yl]carbamate] |  |  |  | 1.09 | 3.61 | 0.028 | 2.34 |
| COc1ccc2nc(C(F)(F)F)c3c(c2c1)CC[C@]1(C[C@H]2C(=O)N[C@]4(C(=O)NS(=O)(=O)C5(C)CC5)C[C@H]4/C=C\CCCCC[C@H](NC(=O)OC4(C)CCC4)C(=O)N2C1)O3 [Example 451, 1-methylcyclobutyl [(2R,6S,12Z,13aS,14aR,16aS)-9′-methoxy-14a-{[(1-methylcyclopropyl)sulfonyl]carbamoyl}-5,16-dioxo-5′-(trifluoromethyl)-1,1′,2′,5,6,7,8,9,10,11,13a,14,14a,15,16,16a-hexadecahydrospiro[cyclopropa[e]pyrrolo[1,2-a][1,4]diazacyclopentadecine-2,3′-pyrano[2,3-c]quinolin]-6-yl]carbamate] | 1.86 | 0.006 | 0.338 | 0.504 |  |  |  |
| CC[C@@H](C)OC(=O)N[C@H]1CCCCC/C=C\[C@@H]2C[C@@]2(C(=O)NS(=O)(=O)C2(C)CC2)NC(=O)[C@@H]2C[C@]3(CCc4c(c(C(F)(F)F)nc5ccc(OC)cc45)O3)CN2C1=O [Example 459, (2R)-butan-2-yl [(2R,6S,12Z,13aS,14aR,16aS)-9′-methoxy-14a-{[(1-methylcyclopropyl)sulfonyl]carbamoyl}-5,16-dioxo-5′-(trifluoromethyl)-1,1′,2′,5,6,7,8,9,10,11,13a,14,14a,15,16,16a-hexadecahydrospiro[cyclopropa[e]pyrrolo[1,2-a][1,4]diazacyclopentadecine-2,3′-pyrano[2,3-c]quinolin]-6-yl]carbamate] |  |  |  | 2.31 | 4.4 | 0.049 | 2.65 |
| CC[C@H](C)OC(=O)N[C@H]1CCCCC/C=C\[C@@H]2C[C@@]2(C(=O)NS(=O)(=O)C2(C)CC2)NC(=O)[C@@H]2C[C@]3(CCc4c(c(C(F)(F)F)nc5ccc(OC)cc45)O3)CN2C1=O [Example 460, (2S)-butan-2-yl [(2R,6S,12Z,13aS,14aR,16aS)-9′-methoxy-14a-{[(1-methylcyclopropyl)sulfonyl]carbamoyl}-5,16-dioxo-5′-(trifluoromethyl)-1,1′,2′,5,6,7,8,9,10,11,13a,14,14a,15,16,16a-hexadecahydrospiro[cyclopropa[e]pyrrolo[1,2-a][1,4]diazacyclopentadecine-2,3′-pyrano[2,3-c]quinolin]-6-yl]carbamate] |  |  |  | 1.78 | 2.99 | 0.034 | 2.74 |
| COc1ccc2nc(C(F)(F)F)c3c(c2c1)[C@H](F)C[C@]1(C[C@H]2C(=O)N[C@]4(C(=O)NS(=O)(=O)C5(C)CC5)C[C@H]4/C=C\CCCCC[C@H](NC(=O)OCC(C)C)C(=O)N2C1)O3 [Example 461, 2-methylpropyl [(1′R,2S,6S,12Z,13aS,14aR,16aS)-1′-fluoro-9′-methoxy-14a-{[(1-methylcyclopropyl)sulfonyl]carbamoyl}-5,16-dioxo-5′-(trifluoromethyl)-1,1′,2′,5,6,7,8,9,10,11,13a,14,14a,15,16,16a-hexadecahydrospiro[cyclopropa[e]pyrrolo[1,2-a][1,4]diazacyclopentadecine-2,3′-pyrano[2,3-c]quinolin]-6-yl]carbamate] | 3.29 | 0.029 | 0.435 | 0.624 |  |  |  |
| COc1ccc2nc(C(F)(F)F)c3c(c2c1)CC[C@]1(C[C@H]2C(=O)N[C@]4(C(=O)NS(=O)(=O)C5(C)CC5)C[C@H]4/C=C\CCCCC[C@H](NC(=O)OC4CCOC4)C(=O)N2C1)O3 (stereo partly drawn) [Example 481, tetrahydrofuran-3-yl [(2R,6S,12Z,13aS,14aR,16aS)-9′-methoxy-14a-{[(1-methylcyclopropyl)sulfonyl]carbamoyl}-5,16-dioxo-5′-(trifluoromethyl)-1,1′,2′,5,6,7,8,9,10,11,13a,14,14a,15,16,16a-hexadecahydrospiro[cyclopropa[e]pyrrolo[1,2-a][1,4]diazacyclopentadecine-2,3′-pyrano[2,3-c]quinolin]-6-yl]carbamate] |  |  |  | 0.225 | 1.31 | 0.006 | 0.436 |
| CCc1nc2ccc(OC)cc2c2c1O[C@]1(CC2)C[C@H]2C(=O)N[C@]3(C(=O)NS(=O)(=O)C4(C)CC4)C[C@H]3/C=C\CCCCC[C@H](NC(=O)c3cn[nH]c3)C(=O)N2C1 [Example 482, (2R,6S,12Z,13aS,14aR,16aS)-5′-ethyl-9′-methoxy-N-[(1-methylcyclopropyl)sulfonyl]-5,16-dioxo-6-[(1H-pyrazol-4-ylcarbonyl)amino]-1,1′,2′,6,7,8,9,10,11,13a,14,15,16,16a-tetradecahydrospiro[cyclopropa[e]pyrrolo[1,2-a][1,4]diazacyclopentadecine-2,3′-pyrano[2,3-c]quinoline]-14a(5H)-carboxamide] | 68.6 | 0.008 | 0.101 | 0.418 |  |  |  |
